Test system: LAPC9-AI prostate tumor xenografts
Assay: Established LAPC9-AI prostate tumor xenografts in tibiae, monotherapy and combination with Carboplatin
Format: in vivo, SCID mice
Details: day 33; MAb 2 mg loading then 1.0 mg i.p. two times a week, 7 doses; Carboplatin 40 mg/kg i.v. days 7, 11, 15, 19, 22, 26; vs control antibody
Description: FIG. 16. […] The tumors were allowed to establish for 7 days, at which time the animals were randomized and assigned to four different groups (n=10 in each group) as indicated in the graph. […] Carboplatin (40 mg/kg) was administered to the mice intravenously (i.v.) on days 7, 11, 15, 19, 22 and 26. On day 33 all mice were sacrificed and the tumors were excised and weighed on an electronic balance.
The tumors were allowed to establish for 7 days, at which time the animals were randomized and assigned to four different groups (n=10 in each group). […] Carboplatin (40 mg/kg) was administered to the mice intravenously (i.v.) on days 7, 11, 15, 19, 22 and 26. On day 33 all mice were sacrificed and the tumors were excised and weighed on an electronic balance.

SMILES: N.N.O=C([O-])C1(C(=O)[O-])CCC1.[Pt+2] [Carboplatin, reference compound]
- inhibition of tumor growth (tumor weight): 87%
